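These data come from cells grown in 96-well plates and exposed to compound for 48 hours at five concentrations. GI50 = concentration required for 50% inhibition of growth. The concentration for full growth arrest is given as TGI.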
Assays:
Experiment in all cases: NCI tumour cell line growth inhibition, 48 h
[1] = tested on: HOP-62 NSCLC
[2] = tested on: DU-145 prostate
[3] = tested on: OVCAR-3 ovarian
[4] = tested on: UACC-257 melanoma
[5] = tested on: KM12 colon
[6] = tested on: BT-549 breast
[7] = tested on: NCI-H23 lung
[8] = tested on: MCF7 breast
[9] = tested on: NCI-H226 lung
[10] = tested on: CAKI-1 renal
[11] = tested on: SK-MEL-5 melanoma
[12] = tested on: M14 melanoma
[13] = tested on: SK-MEL-2 melanoma
[14] = tested on: SNB-19 CNS
[15] = tested on: LOX IMVI melanoma
[16] = tested on: T-47D breast
[17] = tested on: EKVX NSCLC
[18] = tested on: SF-295 CNS
[19] = tested on: RXF 393 renal
[20] = tested on: HCT-15 colon
[21] = tested on: SK-MEL-28 melanoma
[22] = tested on: MDA-MB-231 breast
[23] = tested on: SNB-75 CNS
[24] = tested on: SK-OV-3 ovarian
[25] = tested on: HCC-2998 colon
[26] = tested on: K-562 leukemia
[27] = tested on: A549 NSCLC
[28] = tested on: SR leukemia
[29] = tested on: 786-0 renal
[30] = tested on: CCRF-CEM leukemia
[31] = tested on: SN12C renal
[32] = tested on: OVCAR-8 ovarian
[33] = tested on: TK-10 renal
[34] = tested on: NCI-H522 lung
[35] = tested on: ACHN renal
[36] = tested on: NCI-H460 lung
[37] = tested on: PC-3 prostate
[38] = tested on: IGROV1 ovarian
[39] = tested on: HT29 colon
[40] = tested on: COLO 205 colon
[41] = tested on: A498 renal
[42] = tested on: SF-539 CNS
[43] = tested on: MALME-3M melanoma
[44] = tested on: RPMI-8226 leukemia
[45] = tested on: HL-60(TB) leukemia
[46] = tested on: UACC-62 melanoma
[47] = tested on: OVCAR-4 ovarian
[48] = tested on: OVCAR-5 ovarian
[49] = tested on: UO-31 renal
[50] = tested on: HS 578T breast
[51] = tested on: HOP-92 NSCLC
[52] = tested on: U251 CNS
[53] = tested on: MDA-MB-435
[54] = tested on: HCT-116 colon
[55] = tested on: NCI/ADR-RES ovarian
[56] = tested on: SF-268 CNS
[57] = tested on: MOLT-4 leukemia
[58] = tested on: SW-620 colon

## O=C(CC1(O)C(=O)N(Cc2ccccc2)c2ccc(Br)cc21)c1ccc(C(=O)NCC2CCC3(CC2)OOC2(CCCCC2)OO3)cc1 (stereo unspecified)
[1]
  GI50: 237 nM
  TGI: 619 nM
[2]
  GI50: 191 nM
  TGI: 354 nM
[3]
  GI50: 435 nM
  TGI: 1520 nM
[4]
  GI50: 16100 nM
  TGI: > 100000 nM
[5]
  GI50: 435 nM
  TGI: 1700 nM
[6]
  GI50: 3260 nM
  TGI: 20100 nM
[7]
  GI50: 237 nM
  TGI: 595 nM
[8]
  GI50: 2650 nM
  TGI: > 87900 nM
[9]
  GI50: 5060 nM
  TGI: 19300 nM
[10]
  GI50: 557 nM
  TGI: 1060 nM
[11]
  GI50: 3010 nM
  TGI: 10000 nM
[12]
  GI50: 4310 nM
  TGI: 30600 nM
[13]
  GI50: 3690 nM
  TGI: 13200 nM
[14]
  GI50: 8130 nM
  TGI: > 100000 nM
[15]
  GI50: 152 nM
  TGI: 304 nM
[16]
  GI50: 1300 nM
  TGI: 6280 nM
[17]
  GI50: 437 nM
  TGI: 1590 nM
[18]
  GI50: 794 nM
  TGI: 2460 nM
[19]
  GI50: 554 nM
  TGI: 1290 nM
[20]
  GI50: 1150 nM
  TGI: 4670 nM
[21]
  GI50: 17000 nM
  TGI: > 100000 nM
[22]
  GI50: 549 nM
  TGI: 2030 nM
[23]
  GI50: 1530 nM
  TGI: 6020 nM
[24]
  GI50: 7260 nM
  TGI: > 24200 nM
[25]
  GI50: 2190 nM
  TGI: 5100 nM
[26]
  GI50: 1690 nM
  TGI: 8280 nM
[27]
  GI50: 224 nM
  TGI: 496 nM
[28]
  GI50: 216 nM
  TGI: 981 nM
[29]
  GI50: 173 nM
  TGI: 334 nM
[30]
  GI50: 350 nM
  TGI: 1110 nM
[31]
  GI50: 1160 nM
  TGI: 3180 nM
[32]
  GI50: 285 nM
  TGI: 1010 nM
[33]
  GI50: 350 nM
  TGI: 989 nM
[34]
  GI50: 214 nM
  TGI: 556 nM
[35]
  GI50: 239 nM
  TGI: 598 nM
[36]
  GI50: 488 nM
  TGI: 1660 nM
[37]
  GI50: 1730 nM
  TGI: 12500 nM
[38]
  GI50: 278 nM
  TGI: 799 nM
[39]
  GI50: 615 nM
  TGI: 2060 nM
[40]
  GI50: 2040 nM
  TGI: 5950 nM
[41]
  GI50: 2220 nM
  TGI: 6860 nM
[42]
  GI50: 322 nM
  TGI: 988 nM
[43]
  GI50: 594 nM
  TGI: 2050 nM
[44]
  GI50: 830 nM
  TGI: 3690 nM
[45]
  GI50: 330 nM
  TGI: 1120 nM
[46]
  GI50: 11200 nM
  TGI: > 59000 nM
[47]
  GI50: 3810 nM
  TGI: 16300 nM
[48]
  GI50: 1580 nM
  TGI: 15600 nM
[49]
  GI50: 187 nM
  TGI: 363 nM
[50]
  GI50: 2930 nM
  TGI: 15900 nM
[51]
  GI50: 213 nM
  TGI: 468 nM
[52]
  GI50: 301 nM
  TGI: 920 nM
[53]
  GI50: 647 nM
  TGI: 1930 nM
[54]
  GI50: 2080 nM
  TGI: 8180 nM
[55]
  GI50: 583 nM
  TGI: 1810 nM
[56]
  GI50: 2030 nM
  TGI: 6740 nM
[57]
  GI50: 1980 nM
  TGI: 6540 nM
[58]
  GI50: 2890 nM
  TGI: 10100 nM

From PubChem BioAssay (NCI)
